These results are taken from PubChem BioAssay AID330 (DTP/NCI, 2004).

This assay concerns P388 leukemia ip, CD2F1 mice, survival T/C. The assay is described as follows: NCI In Vivo Anticancer Drug Screen. Data for tumor model P388 Leukemia (intraperitoneal) in CD2F1 (CDF1) mice. The settings on record: endpoint: median survival time, higher = longer survival. Put shortly:
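Mice carrying the transplanted tumor received test compound or vehicle. Survival was recorded in each group, and the value is the treated-group measurement divided by that of the vehicle-treated control group.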

Where [1] appears, read: dose: 60.0 mg/kg/injection, schedule: Q01DX005 (ip), vehicle: Klucel (hydroxypropylcellulose) (HPC).
The mark [2] stands for this setting: dose: 120.0 mg/kg/injection, schedule: Q01DX005 (ip), vehicle: Klucel (hydroxypropylcellulose) (HPC).
The mark [3] stands for this setting: dose: 240.0 mg/kg/injection, schedule: Q01DX005 (ip), vehicle: Klucel (hydroxypropylcellulose) (HPC).
Setting [4] is: dose: 60.0 mg/kg/injection, schedule: Q01DX005 (ip), vehicle: saline with Tween-80.
The mark [5] stands for this setting: dose: 120.0 mg/kg/injection, schedule: Q01DX005 (ip), vehicle: saline with Tween-80.
[6] abbreviates: dose: 50.0 mg/kg/injection, schedule: Q01DX009 (ip), vehicle: saline with Tween-80.
Where [7] appears, read: dose: 100.0 mg/kg/injection, schedule: Q01DX009 (ip), vehicle: saline with Tween-80.
The mark [8] stands for this setting: dose: 15.0 mg/kg/injection, schedule: Q01DX005 (ip), vehicle: saline with Tween-80.
Where [9] appears, read: dose: 25.0 mg/kg/injection, schedule: Q01DX009 (ip), vehicle: saline with Tween-80.
[10] abbreviates: dose: 50.0 mg/kg/injection, schedule: Q01DX005 (ip), vehicle: saline with Tween-80.
Where [11] appears, read: dose: 100.0 mg/kg/injection, schedule: Q01DX005 (ip), vehicle: saline with Tween-80.
Where [12] appears, read: dose: 100.0 mg/kg/injection, schedule: Q04DX003 (ip), vehicle: Klucel (hydroxypropylcellulose) (HPC).
[13] abbreviates: dose: 200.0 mg/kg/injection, schedule: Q04DX003 (ip), vehicle: Klucel (hydroxypropylcellulose) (HPC).
Setting [14] is: dose: 200.0 mg/kg/injection, schedule: Q01DX005 (ip), vehicle: saline with Tween-80.
The mark [15] stands for this setting: dose: 240.0 mg/kg/injection, schedule: Q01DX005 (ip), vehicle: saline with Tween-80.
The mark [16] stands for this setting: dose: 400.0 mg/kg/injection, schedule: Q04DX003 (ip), vehicle: Klucel (hydroxypropylcellulose) (HPC).

Where “and” joins values, the source holds several entries; their conditions need not be identical. Equal values may be shown once. Toxic doses and inconclusive results are not listed.

With `CC1C(=O)C=C(c2ccccc2)C1(O)c1ccccc1` (stereo not given), the T/C reads like this: (dose: 100.0 mg/kg/injection, schedule: Q01DX001 (ip), vehicle: saline with Tween-80) 104 % of control; (dose: 200.0 mg/kg/injection, schedule: Q01DX001 (ip), vehicle: saline with Tween-80) 103 % of control.

For `CC(C)=CC(C)(O)c1nc2ccccc2s1` (stereo not given), the T/C is 95 % of control under setting [1], 93 % of control under setting [2] and 96 % of control under setting [3].

On to `COc1cc(C2CC(C)(OC)Oc3cc4c(cc32)OCO4)cc(OC)c1OC` (stereo not given), for which the T/C runs as follows: under setting [4], 106 % of control and 90 % of control and 95 % of control; under setting [5], 109 % of control and 95 % of control and 97 % of control.

For `Cc1cc(OC(=O)Nc2c(Cl)cccc2Cl)c(Cl)c(C)c1Cl`, the T/C is, setting by setting: under setting [6], 112 % of control; under setting [7], 109 % of control; (dose: 200.0 mg/kg/injection, schedule: Q01DX009 (ip), vehicle: saline with Tween-80) 105 % of control.

As for `O=NNc1nc2c(Cl)cccc2s1`, the T/C was 102 % of control (dose: 1.56 mg/kg/injection, schedule: Q01DX009 (ip), vehicle: water); 101 % of control (dose: 3.12 mg/kg/injection, schedule: Q01DX009 (ip), vehicle: water); 102 % of control (dose: 3.15 mg/kg/injection, schedule: Q01DX009 (ip), vehicle: water); 99 % of control and 100 % of control (dose: 6.25 mg/kg/injection, schedule: Q01DX009 (ip), vehicle: water); 99 % of control and 114 % of control (dose: 12.5 mg/kg/injection, schedule: Q01DX009 (ip), vehicle: water); 100 % of control and 111 % of control (dose: 25.0 mg/kg/injection, schedule: Q01DX009 (ip), vehicle: water). The T/C (dose: 50.0 mg/kg/injection, schedule: Q01DX009 (ip), vehicle: water) is 106 % of control.

`CC1CCN(C(=S)NNC(C)c2cc3ccccc3cn2)CC1` (stereo not given): the T/C (dose: 6.25 mg/kg/injection, schedule: Q01DX005 (ip), vehicle: saline with Tween-80) is 114 % of control.

In the case of `CC(C)(C)SC(=O)CC1(O)CCCCC1`, the T/C was 98 % of control (dose: 25.0 mg/kg/injection, schedule: Q04DX002 (ip), vehicle: Klucel (hydroxypropylcellulose) (HPC)); 100 % of control (dose: 50.0 mg/kg/injection, schedule: Q04DX002 (ip), vehicle: Klucel (hydroxypropylcellulose) (HPC)); 100 % of control (dose: 100.0 mg/kg/injection, schedule: Q04DX002 (ip), vehicle: Klucel (hydroxypropylcellulose) (HPC)).

Consider `CCc1nc(N)nc(N)c1-c1ccc(OC)c([N+](=O)[O-])c1`, for which the T/C is 151 % of control and 189 % of control under setting [5]; 90 % of control (dose: 480.0 mg/kg/injection, schedule: Q01DX005 (ip), vehicle: saline with Tween-80).

In the case of `O=P(O/C(=C\c1ccccc1)c1ccccc1)(c1ccccc1)c1ccccc1`, the T/C runs as follows: under setting [1], 91 % of control; under setting [2], 90 % of control; under setting [3], 90 % of control.

Take `CC/C([O-])=C1/C(=O)N(c2ccccc2)N=C1C.CC/C([O-])=C1/C(=O)N(c2ccccc2)N=C1C.[Cu+2]`: the T/C is 100 % of control under setting [8]; 107 % of control (dose: 30.0 mg/kg/injection, schedule: Q01DX005 (ip), vehicle: saline with Tween-80); 91 % of control and 94 % of control under setting [4]; 100 % of control under setting [5].

Regarding `NC(Cc1ccc(O)cc1)c1nn[nH]n1` (stereo not given), the T/C was 114 % of control under setting [9], 100 % of control under setting [6] and 99 % of control under setting [7].

As for `CN(C)[C@@H]1C(=O)C(C(N)=O)=C(O)[C@]2(O)C(=O)C3C(=O)c4c(O)ccc(Cl)c4[C@](C)(O)[C@H]3C[C@@H]12` (stereo not given in full), the T/C (dose: 8.8 mg/kg/injection, schedule: Q01DX009 (ip), vehicle: saline with Tween-80) was 109 % of control; the T/C (dose: 13.3 mg/kg/injection, schedule: Q01DX009 (ip), vehicle: saline with Tween-80) was 100 % of control; the T/C (dose: 20.0 mg/kg/injection, schedule: Q01DX009 (ip), vehicle: saline with Tween-80) was 109 % of control; the T/C (dose: 30.0 mg/kg/injection, schedule: Q01DX009 (ip), vehicle: saline with Tween-80) was 118 % of control.

In the case of `CC(C)CC(NC(=O)OC(C)(C)C)C(=O)ON1C(=O)CCC1=O` (stereo not given), the T/C under setting [10] was 111 % of control and the T/C under setting [11] is 111 % of control.

Take `Nc1[nH]c(=S)[nH]c(=O)c1N=Cc1ccc2c(c1)OCO2`: the T/C is, setting by setting: under setting [12], 108 % of control and 113 % of control; under setting [13], 112 % of control and 114 % of control.

For the molecule `CC(=O)NCCCC(=O)O`, the T/C (dose: 200.0 mg/kg/injection, schedule: Q01DX009 (ip), vehicle: saline) was 98 % of control.

Turning to `Cc1ccc(C)c(NC(=O)/C=N/O)c1`, the T/C reads like this: under setting [10], 98 % of control; under setting [11], 110 % of control; under setting [14], 105 % of control.

Regarding `CC(C)(C)SCC(CSC(C)(C)C)(CSC(C)(C)C)CSC(C)(C)C`, the T/C was 102 % of control (dose: 1.5 mg/kg/injection, schedule: Q01DX001 (ip), vehicle: saline with Tween-80); 98 % of control (dose: 3.0 mg/kg/injection, schedule: Q01DX001 (ip), vehicle: saline with Tween-80); 112 % of control (dose: 6.0 mg/kg/injection, schedule: Q01DX001 (ip), vehicle: saline with Tween-80).

As to `COC(=O)c1nnn(-c2ccc(Cl)cc2C)c1N`, the T/C by setting is: under setting [4], 96 % of control; under setting [5], 97 % of control; under setting [15], 91 % of control.

As for `NC[CH2][Sn]([c]1ccccc1)([CH]1CCCCC1)[CH]1CCCCC1`, the T/C was 100 % of control (dose: 3.75 mg/kg/injection, schedule: Q01DX005 (ip), vehicle: saline with Tween-80); 93 % of control (dose: 7.5 mg/kg/injection, schedule: Q01DX005 (ip), vehicle: saline with Tween-80); 99 % of control under setting [8]; 92 % of control under setting [4].

As for `COC(=O)c1cc(=O)nc(NN)s1`, the T/C runs as follows: under setting [10], 92 % of control; under setting [11], 90 % of control.

For `COC(=O)c1nc(=S)[nH]c(C(=O)OC)c1C(=O)c1ccc(C)cc1`, the T/C was 106 % of control under setting [4], 100 % of control under setting [5] and 100 % of control under setting [15].

On to `CC(=O)OC12CCCCC(CCCC1)O2`, for which the T/C under setting [12] is 100 % of control, the T/C under setting [13] is 99 % of control and the T/C under setting [16] was 100 % of control.

Consider `CC1C(c2ccccc2)OCN1C` (stereo not given), for which the T/C is 110 % of control and 88 % of control (dose: 12.5 mg/kg/injection, schedule: Q01DX005 (ip), vehicle: saline); 100 % of control and 116 % of control (dose: 25.0 mg/kg/injection, schedule: Q01DX005 (ip), vehicle: saline); 110 % of control [middle of 5 runs] (dose: 50.0 mg/kg/injection, schedule: Q01DX005 (ip), vehicle: saline); 118 % of control and 109 % of control (dose: 100.0 mg/kg/injection, schedule: Q01DX005 (ip), vehicle: saline); 116 % of control (dose: 200.0 mg/kg/injection, schedule: Q01DX005 (ip), vehicle: saline).

Take `CCC(C)C1NC(=O)C2C(CCN2C(=O)C(Cc2c[nH]c3ccccc23)NC(=O)C(CC(C)C)N(C)C)Oc2ccc(cc2)/C=C\NC1=O` (stereo not given): the T/C was 94 % of control (dose: 100.0 mg/kg/injection, schedule: Q04DX003 (ip), vehicle: saline with Tween-80) and 97 % of control (dose: 200.0 mg/kg/injection, schedule: Q04DX003 (ip), vehicle: saline with Tween-80).

Take `CCB1OCC(C2OC(O)C3OB(CC)OC32)O1` (stereo not given): the T/C by setting is: under setting [10], 101 % of control and 96 % of control; under setting [11], 96 % of control; under setting [14], 103 % of control and 92 % of control.

Turning to `O=C(CCSSCCC(=O)ON1C(=O)CCC1=O)ON1C(=O)CCC1=O`, the T/C reads like this: (dose: 6.25 mg/kg/injection, schedule: Q01DX009 (ip), vehicle: saline with Tween-80) 100 % of control; (dose: 12.5 mg/kg/injection, schedule: Q01DX009 (ip), vehicle: saline with Tween-80) 105 % of control; under setting [9], 112 % of control.

`Cc1ccc(/C=C2/C/C(=C\c3ccc(C)cc3)C2=O)cc1`: the T/C reads like this: (dose: 12.5 mg/kg/injection, schedule: Q04DX003 (ip), vehicle: Klucel (hydroxypropylcellulose) (HPC)) 94 % of control; (dose: 25.0 mg/kg/injection, schedule: Q04DX003 (ip), vehicle: Klucel (hydroxypropylcellulose) (HPC)) 92 % of control; (dose: 50.0 mg/kg/injection, schedule: Q04DX003 (ip), vehicle: Klucel (hydroxypropylcellulose) (HPC)) 87 % of control; under setting [16], 88 % of control.
